Measured values published in patent US20250197420A1, “MACROCYCLIC COMPOUNDS, COMPOSITIONS, AND METHODS OF USING THEREOF” (Sionna Therapeutics Inc., priority 2022, published 2025).

Columns and labels:
[1] = biological target: T1, Purified recombinant NBD1 (Homo sapiens, UniProt P13569); assay: Aggregation analysis using differential static light scattering (DSLS): thermal stability of NBD1; format: binding; conditions: NBD1 0.2 mg/ml; Tagg of compound well minus average Tagg of DMSO control wells
T1 construct: Purified recombinant NBD1 was produced using previously described methods; made in house
T1 sequence (P13569 423-646 limits assumed): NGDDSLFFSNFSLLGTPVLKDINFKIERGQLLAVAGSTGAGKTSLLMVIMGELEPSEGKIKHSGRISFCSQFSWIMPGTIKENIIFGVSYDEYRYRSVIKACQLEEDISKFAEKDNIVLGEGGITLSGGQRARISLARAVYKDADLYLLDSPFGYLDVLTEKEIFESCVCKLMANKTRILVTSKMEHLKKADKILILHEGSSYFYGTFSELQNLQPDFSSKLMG
Outline: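 ΔTagg is compound-well aggregation temperature minus the DMSO-control mean, each Tagg being the inflection point of light scattering measured by DSLS during a 1 °C/min ramp up to 70 °C. The protein was purified NBD1 (0.2 mg/ml) in pH 7.6 buffer containing 2 mM ATP, 5 mM MgCl2 and 1% glycerol.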

[2] = tested on: Primary human bronchial epithelial cells from a ΔF508 homozygous CF donor (CF-HBE cells); assay: TECC24 recording of CFTR-mediated transepithelial chloride transport, AUC fold over benchmark VX-809 @10 μM; format: cell-based; conditions: 48 hours incubation, AUC of forskolin-stimulated IEQ
Description: The effects of a test agent on CFTR-mediated transepithelial chloride transport is measured using TECC24 recording analysis. Test agents are solubilized in DMSO. Solubilized test agents are mixed with incubation medium containing DMEM/F12, Ultroser G (0.5%; Crescent Chemical, catalog #67042), Hyclone Fetal Clone II (2%; GE Healthcare, catalog #SH30066.02), bovine brain extract (0.25%; Lonza, catalog #CC-4098), insulin ([…]), IL-13 (10 ng/mL), hydrocortisone (20 nM), transferrin ([…]), triiodothyronine (500 nM), ethanolamine (250 nM), epinephrine (1.5 μM), phosphoethanolamine (250 nM), and retinoic acid (10 nM). Primary human bronchial epithelial cells from a ΔF508 homozygous CF donor (CF-HBE cells; from University of North Carolina Cystic Fibrosis Tissue Procurement Center), grown on Transwell HTS 24-well cell culture inserts (Costar, catalog #3378), are exposed to test agents or controls dissolved in incubation medium. The CF-HBE cells are cultured at 36.5° C. for 48 hours before TECC24 recordings are performed in the presence or absence of test agent, a positive control or vehicle (DMSO).
Following incubation, the transwell cell culture inserts containing the test agent or control-treated CF-HBE cells are loaded onto a TECC24 apparatus (TECC v7 or MTECC v2; EP Design) to record the transepithelial voltage (VT) and resistance (TEER) using 4 AgCl electrodes per well configured in current-clamp mode. The apical and basolateral bath solutions both contain (in mM) 140 NaCl, 5 KCl, 2 CaCl2), 1 MgCl2, 10 Hepes, and 10 glucose (adjusted to pH 7.4 with NaOH). To inhibit basal Na+ absorption, the ENaC inhibitor benzamil (10 μM) is added to the bath. Then, the adenylate cyclase activator, forskolin (10 μM), is added to the bath to activate CFTR. The forskolin-stimulated Cl− transport is halted by addition of CFTR inhibitor-172 (20 μM) to the bath at the end of the experiment to confirm specificity. VT and TEER recordings are digitally acquired at routine intervals using TECC or MTECC software (EP Design). VT and TEER are transformed into equivalent transepithelial Cl− current (IEQ), and the Area Under the Curve (AUC) of the IEQ time course between forskolin and CFTR inhibitor-172 addition is generated using Excel (Microsoft). Efficacy is expressed as the ratio of the test agent AUC divided by vehicle AUC. EC50s based on AUC are generated using the non-linear regression log(agonist) vs. response function in Prism software (Graphpad) with HillSlope fixed=1.
If a test agent increases the AUC of the forskolin-stimulated IEQ relative to VX-809 in CF-HBE cells, and this increase is inhibited by CFTR inhibitor-172, then the test agent is considered a CFTR corrector. TECC assay efficacy is expressed as the ratio of the test agent AUC divided by VX-809 AUC. As set forth in Table 2 below, a TECC value less than 3 is marked “A”; a value between 3 and 6 is marked “B”; a value between 6 and 20 is marked “C”.

Structure (SMILES) | DSLS (ΔTagg) [1] | TECC (test agent AUC divided by VX-809 AUC) [2]
CN1CC(C)(C)CCCC(C)(c2ccc(CCC(=O)O)cc2)c2cnc([nH]2)-c2cc(ccc2F)Oc2c(F)cc3[nH]ccc3c2CCC1=O (single isomer, unassigned) [Compound 47A, 3-[4-(23,29-Difluoro-6,10,10,12-tetramethyl-13-oxo-25-oxa-3,12,20,31-tetrazapentacyclo-[24.3.1.12,5.016,24.017,21]hentriaconta-1(30),2,4,16,18,21,23,26,28-nonaen-6-yl)phenyl]propanoic acid] | A (an ΔTagg value less than or equal to 5 °C is marked “A”) | A (a TECC value less than 3 is marked “A”)
CN1CC(C)(C)CCCC(C)(c2ccc(CCC(=O)O)cc2)c2cnc([nH]2)-c2cc(ccc2F)Oc2c(F)cc3[nH]ccc3c2CCC1=O (single isomer, unassigned) [Compound 47B, 3-[4-(23,29-Difluoro-6,10,10,12-tetramethyl-13-oxo-25-oxa-3,12,20,31-tetrazapentacyclo-[24.3.1.12,5.016,24.017,21]hentriaconta-1(30),2,4,16,18,21,23,26,28-nonaen-6-yl)phenyl]propanoic acid] | C (a value greater than 10 °C and less than or equal to 25 °C is marked “C”) | A (a TECC value less than 3 is marked “A”)
CN1CC(C)(C)CCCC(C)(c2cccc(CCC(=O)O)c2)c2cnc([nH]2)-c2cc(ccc2F)Oc2c(F)cc3[nH]ccc3c2CCC1=O (single isomer, unassigned) [Compound 49A, 3-[3-(23,29-Difluoro-6,10,10,12-tetramethyl-13-oxo-25-oxa-3,12,20,31-tetrazapentacyclo-[24.3.1.12,5.016,24.017,21]-hentriaconta-1(30),2,4,16,18,21,23,26,28-nonaen-6-yl)phenyl]propanoic acid] | A (an ΔTagg value less than or equal to 5 °C is marked “A”) | A (a TECC value less than 3 is marked “A”)
CN1CC(C)(C)CCCC(C)(c2cccc(CCC(=O)O)c2)c2cnc([nH]2)-c2cc(ccc2F)Oc2c(F)cc3[nH]ccc3c2CCC1=O (single isomer, unassigned) [Compound 49B, 3-[3-(23,29-Difluoro-6,10,10,12-tetramethyl-13-oxo-25-oxa-3,12,20,31-tetrazapentacyclo-[24.3.1.12,5.016,24.017,21]-hentriaconta-1(30),2,4,16,18,21,23,26,28-nonaen-6-yl)phenyl]propanoic acid] | C (a value greater than 10 °C and less than or equal to 25 °C is marked “C”) | A (a TECC value less than 3 is marked “A”)
CNC(=O)CCc1cccc(C2(C)CCCC(C)(C)CN(C)C(=O)CCc3c(c(F)cc4[nH]ccc34)Oc3ccc(F)c(c3)-c3ncc2[nH]3)c1 (single isomer, unassigned) [Compound 53A, 3-[3-(23,29-difluoro-6,10,10,12-tetramethyl-13-oxo-25-oxa-3,12,20,31-tetrazapentacyclo-[24.3.1.12,5.016,24.017,21]hentriaconta-1(30),2,4,16,18,21,23,26,28-nonaen-6-yl)phenyl]-N-methyl-propanamide] | A (an ΔTagg value less than or equal to 5 °C is marked “A”) | A (a TECC value less than 3 is marked “A”)
CNC(=O)CCc1cccc(C2(C)CCCC(C)(C)CN(C)C(=O)CCc3c(c(F)cc4[nH]ccc34)Oc3ccc(F)c(c3)-c3ncc2[nH]3)c1 (single isomer, unassigned) [Compound 53B, 3-[3-(23,29-difluoro-6,10,10,12-tetramethyl-13-oxo-25-oxa-3,12,20,31-tetrazapentacyclo-[24.3.1.12,5.016,24.017,21]hentriaconta-1(30),2,4,16,18,21,23,26,28-nonaen-6-yl)phenyl]-N-methyl-propanamide] | B (a value above 5 °C and less than or equal to 10 °C is marked “B”) | A (a TECC value less than 3 is marked “A”)
